# Measurements as given in patent US20230372331A1, “PHARMACEUTICAL COMPOSITION” (ANXO PHARMACEUTICAL CO., LTD., priority 2022, published 2023).
# Structures can show the parent of a compound that is named as a salt.
# Experiment: Solubility of cariprazine forms in acetate medium
# Format: physicochemical
# Source text: Different drug solubilities of cariprazine HCl and cariprazine base could be the reason to affect the release of cariprazine in the pharmaceutical compositions. […] The release profile of cariprazine in pharmaceutical composition with combo cariprazine base and cariprazine HCl were between pharmaceutical compositions B-752H-TF8-N and C-752H-TF8-N.
smiles,measurement,value
"CN(C)C(=O)N[C@H]1CC[C@H](CCN2CCN(c3cccc(Cl)c3Cl)CC2)CC1 [Cariprazine HCl, cariprazine HCl]",solubility in acetate medium (in words),higher solubility in acetate medium than cariprazine base
